This is an account of results in patent US20070014748A1, “Urea compounds that promote desquamation” (L'OREAL, priority 2005, published 2007).

In one test the test system is corneodesmosin. Nature of the test: Degradation of corneodesmosin in a controlled environment chamber (varnished strippings, immunoblot). The class given is biochemical. The conditions noted are these: for percentages of residual corneodesmosin relative to the control: 5% active agent in base Arlacel/Myrj, 37° C., 70% relative humidity, 5 days, mean of 2 experiments, the lower the percentage, the higher the degradation. An excerpt: (§1) Three properties were therefore studied: • The prodesquamating power, by the test of degradation of corneodesmosin in a controlled environment chamber with formulated products containing 5% active agent. […] P According to one of the aspects of the invention, the said compound of formula (I) has a corneodesmosin degrading effect which it stimulates.
The molecules are formulated in a neutral base Arlacel/Myrj. The products are in contact with varnished strippings under defined temperature, humidity and incubation time conditions. The corneodesmosin is assayed by immunodetection after incubation. It is studied on an immunoblot after electrophoretic separation and transfer onto a membrane. After specific labelling with the antibody G3619, it is visualized by chemiluminescence.
The Hydrovance® product, which is a mixture comprising N-(2-hydroxyethyl)urea marketed by the company National Starch, is compared with urea and with a control.
Rectangles of 3×3.5 cm^2 are cut out in varnished strippings made on the bottom of dry skin legs. They are treated with 42 mg of product (4 mg/cm^2) each. Controls and assays are carried out in parallel. The assays are incubated at 37° C. and 70% relative humidity for 5 days. The controls are kept for 5 days at −20° C. For each of the samples, acetone powders are made and weighed. The proteins are extracted with 100 μl of complete Laemmli buffer. They are assayed according to the Bradford method. The protein level of each sample is adjusted and will allow direct comparison of the various samples.
The proteins are separated by SDS-Page electrophoresis on 12% acrylamide gel. After transferring the proteins onto a PVDF membrane, the immunodetection is carried out with the anti-corneodesmosin antibody G3619 (Guy Serre) at 1/12 500 according to a conventional Western-blot technique. The visualization is performed by chemiluminescence. The bands detected by fluorSmax (Biorad) are quantified with the software quantity-one. […]
The results are expressed as percentages of residual corneodesmosin relative to the control −80° C. […]
For orientation: In western blotting, separated proteins are transferred to a membrane and probed.

In test [1] the test system is acid proteases of the SC (stratum corneum). The experiment in a line: Activating potential on acid proteases of the stratum corneum (Enzchek Bodipyfl-casein fluorimetric assay). The class given is biochemical. The conditions noted are these: for acid protease activity compared with the control / duration of the activating effect on acid proteases: 1 and 2 M; for acid protease activity compared with the control: 0.1M acetic buffer pH 5.0, SC enzymatic extract; for duration of the activating effect on acid proteases: readings up to 24 h. Here is the method:
as §1
The property of activating certain acid proteases of the SC (stratum corneum) is evaluated. The measurement of this activity is carried out by fluorimetric assay with the aid of the Enzchek kit (Molecular Probes). This protocol uses a Bodipyfl-casein substrate which, when hydrolysed, releases fluorescence. The fluorescence released is directly proportional to the protease activity. It is read directly on a 96-well plate in a spectrofluorimeter at 750V at an excitation of 485 nm and an emission of 535 nm.
The results obtained with N-(2-hydroxyethyl)urea (compound according to the invention) are compared with those for urea.
The molecules are prepared at 0, 1, 2 and 4 M in 0.1M acetic buffer; pH 5.0. An enzymatic extract is prepared from acetone powders. 2 ml of PBS buffer +0.1% Triton X100 are brought into contact for 1 h in crushed ice with 200 mg of stratum corneum acetone powders. The mixture is then ground in a potter device and then centrifuged for 10 min at 15 000 g at 4° C. The supernatant is collected. The Enzchek substrate diluted 1/200 is incorporated into each solution containing the molecules. The assays are repeated three times.
The reaction mixture is prepared directly in a white plate. 10 μl of enzymatic extract are added to 200 μl of solution containing the substrate at 0, 1, 2 or 4M. The readings are carried out at t0, 1 2 h, t 16 h and t 24 h.

The test system of test [2] is keratins and proteins of the SC. The experiment in a line: "Keratolytic" potential: solubilization of keratins and proteins of the stratum corneum (electrophoresis gel). As to conditions: 2M in water +2% CHAPS; room temperature; 12.5% acrylamide gel, silver nitrate staining. The protocol: as §1
Urea is known for its denaturing activity on keratolytic proteins.
30 mg of acetone powders of stratum corneum of the bottom of the legs of volunteers are prepared and brought into contact with 3 ml of water +2% CHAPS (zwitterionic detergent) for 10 min at room temperature. The mixture is then ground in a potter device and centrifuged for 10 min at 15 000 g. The supernatant is removed. This method makes it possible to remove the very soluble keratins and proteins which would interfere with the interpretation of the results. The pellet is taken up in 300 μl of water+CHAPS and 20 μl are distributed into 10 Eppendorf tubes.
Each molecule to be studied is prepared at 2M in water +2% CHAPS.
200 μl of solution are mixed with 20 μl of extract of acetone powders. The assays are carried out in duplicate. A control with no reagent is performed in parallel. The reaction mixtures are incubated for 10 min at room temperature, they are ground in a potter device and then incubated for 50 min at room temperature. They are centrifuged for 10 min at 15 000 g. […]

`NC(N)=O` [urea]: in the test on corneodesmosin, the “percentages of residual corneodesmosin relative to the control” value was determined as 30%. Besides, in test [1], the “acid protease activity compared with the control” value is reported as “slightly activating effect” and the “duration of the activating effect on acid proteases” value is listed as “up to two hours after the start of incubation”.
With `NC(=O)NCCO` [Hydrovance, N-(2-hydroxyethyl)urea], the “percentages of residual corneodesmosin relative to the control” value with corneodesmosin worked out at 23%. The “prodesquamating effect (corneodesmosin degradation) compared with urea” value with corneodesmosin (5% in base Arlacel/Myrj) is recorded as “slightly higher effect than urea”. Besides, in test [1], the “acid protease activity compared with the control” value is “large increase in activity” and the “duration of the activating effect on acid proteases” value is recorded as “long-lasting”. Besides, in test [1] (4M, regardless of the time studied), the acid protease activity result was “marked decrease in activity”. In addition, the “degradation of a protein substrate by the acid proteases of the SC” value in test [1] (concentration of 0.5 to 2M, in particular 1M) was “durably stimulates”. In addition, the “solubilization of SC proteins, gel band pattern compared with urea” value in test [2] is “distinguishable from urea by the appearance of low MW bands”.
